From PubChem BioAssay AID192 (DTP/NCI, 2004) come the findings set out here.

The test system of the assay is BDF1 mice, B16 melanoma ip, median survival T/C. Kind of assay: NCI In Vivo Anticancer Drug Screen. Data for tumor model B16 Melanoma (intraperitoneal) in B6D2F1 (BDF1) mice. The following applies: endpoint: median survival time, higher = longer survival. The gist of the method:
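Vehicle-treated animals serve as the reference (C); treated animals (T) are scored for survival or tumor size after tumor transplantation.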

[1] abbreviates: dose: 25.0 mg/kg/injection, schedule: Q04DX003 (ip), vehicle: Klucel (hydroxypropylcellulose) (HPC).
Where [2] appears, read: dose: 6.25 mg/kg/injection, schedule: Q01DX009 (ip), vehicle: saline with Tween-80.
Setting [3] is: dose: 12.5 mg/kg/injection, schedule: Q01DX009 (ip), vehicle: saline with Tween-80.
Where [4] appears, read: dose: 50.0 mg/kg/injection, schedule: Q01DX009 (ip), vehicle: saline with Tween-80.
Where [5] appears, read: dose: 100.0 mg/kg/injection, schedule: Q01DX009 (ip), vehicle: saline with Tween-80.
Where [6] appears, read: dose: 200.0 mg/kg/injection, schedule: Q01DX009 (ip), vehicle: saline with Tween-80.
The mark [7] stands for this setting: dose: 5.0 mg/kg/injection, schedule: Q01DX009 (ip), vehicle: saline with Tween-80.
[8] abbreviates: dose: 10.0 mg/kg/injection, schedule: Q01DX009 (ip), vehicle: saline with Tween-80.

“And” between values parts separate entries of the source, which are not always exact repeats. Identical values can stand only once. Inconclusive results and toxic doses are left out. Peptide text beside a SMILES is read from it. * marks the point of attachment. Cbz = O=C(OCc1ccccc1)*

Regarding `COC1C(O)=C2C(=O)OC(C)(O)/C=C/C=C\C=C/C=C/C(c3ccccc3)NC(=O)/C=C/C=C/C=C/C=C/C2(C)C1O` (stereo unspecified), the T/C is 103 % of control (dose: 0.39 mg/kg/injection, schedule: Q01DX009 (ip), vehicle: Klucel (hydroxypropylcellulose) (HPC)); 104 % of control (dose: 0.78 mg/kg/injection, schedule: Q01DX009 (ip), vehicle: Klucel (hydroxypropylcellulose) (HPC)); 96 % of control (dose: 1.56 mg/kg/injection, schedule: Q01DX009 (ip), vehicle: Klucel (hydroxypropylcellulose) (HPC)); 104 % of control (dose: 1.56 mg/kg/injection, schedule: Q01DX009 (ip), vehicle: other); 106 % of control (dose: 3.12 mg/kg/injection, schedule: Q01DX009 (ip), vehicle: Klucel (hydroxypropylcellulose) (HPC)); 103 % of control (dose: 3.12 mg/kg/injection, schedule: Q01DX009 (ip), vehicle: other). For the same compound, the T/C runs as follows: (dose: 6.25 mg/kg/injection, schedule: Q01DX009 (ip), vehicle: other) 101 % of control; (dose: 12.5 mg/kg/injection, schedule: Q01DX009 (ip), vehicle: other) 97 % of control.
`CC(C)(CO)C(O)C(=O)NNCc1ccccc1` (stereo unspecified): the T/C by setting is: under setting [1], 102 % of control; (dose: 25.0 mg/kg/injection, schedule: Q04DX003 (ip), vehicle: saline) 95 % of control; (dose: 50.0 mg/kg/injection, schedule: Q04DX003 (ip), vehicle: Klucel (hydroxypropylcellulose) (HPC)) 90 % of control; (dose: 50.0 mg/kg/injection, schedule: Q04DX003 (ip), vehicle: saline) 99 % of control; (dose: 100.0 mg/kg/injection, schedule: Q04DX003 (ip), vehicle: saline) 100 % of control; (dose: 200.0 mg/kg/injection, schedule: Q04DX003 (ip), vehicle: Klucel (hydroxypropylcellulose) (HPC)) 92 % of control. In addition, the T/C is 100 % of control (dose: 200.0 mg/kg/injection, schedule: Q04DX003 (ip), vehicle: saline); 95 % of control (dose: 400.0 mg/kg/injection, schedule: Q04DX003 (ip), vehicle: Klucel (hydroxypropylcellulose) (HPC)); 91 % of control (dose: 400.0 mg/kg/injection, schedule: Q04DX003 (ip), vehicle: saline).
Consider `CN(C)N=Nc1c(Cl)cccc1Cl`, for which the T/C (dose: 18.75 mg/kg/injection, schedule: Q01DX009 (ip), vehicle: Klucel (hydroxypropylcellulose) (HPC)) was 101 % of control and the T/C (dose: 37.5 mg/kg/injection, schedule: Q01DX009 (ip), vehicle: Klucel (hydroxypropylcellulose) (HPC)) is 105 % of control.
With `COc1cc(/C=C/c2nc3ccccc3nc2/C=C/c2cc(OC)c(OC)c(OC)c2)cc(OC)c1OC`, the T/C is, setting by setting: under setting [2], 106 % of control; under setting [3], 97 % of control.
On to `O=C(NC(Cc1ccccc1)C(=O)N1CCCC1C(=O)O)OCc1ccccc1` (stereo not drawn) (Cbz-Phe-Pro-OH; configuration not given here), for which the T/C under setting [4] was 99 % of control, the T/C under setting [5] was 99 % of control and the T/C under setting [6] is 91 % of control.
In the case of `CS(=O)(=O)OCCN(CCOS(C)(=O)=O)c1ccc(C=O)cc1`, the T/C under setting [2] is 170 % of control.
Turning to `Clc1nc(SC2=NCCN2)c2[nH]cnc2n1`, the T/C is, setting by setting: (dose: 1.25 mg/kg/injection, schedule: Q01DX009 (ip), vehicle: saline with Tween-80) 93 % of control; (dose: 2.5 mg/kg/injection, schedule: Q01DX009 (ip), vehicle: saline with Tween-80) 97 % of control; under setting [7], 101 % of control; under setting [8], 101 % of control and 103 % of control.
Turning to `O=C(Nc1ccc2ccccc2c1)c1ccc(Cl)cc1Cl`, the T/C runs as follows: (dose: 100.0 mg/kg/injection, schedule: Q04DX003 (ip), vehicle: saline with Tween-80) 88 % of control; (dose: 200.0 mg/kg/injection, schedule: Q04DX003 (ip), vehicle: saline with Tween-80) 91 % of control; (dose: 400.0 mg/kg/injection, schedule: Q04DX003 (ip), vehicle: saline with Tween-80) 94 % of control.
As to `Cc1noc2c1ncc[n+]2[O-]`, the T/C is 108 % of control under setting [7]; 119 % of control under setting [8]; 116 % of control (dose: 20.0 mg/kg/injection, schedule: Q01DX009 (ip), vehicle: saline with Tween-80).
With `CC/C(CC(C)CC)=N\O` (stereo unspecified), the T/C (dose: 100.0 mg/kg/injection, schedule: Q01DX009 (ip), vehicle: saline) was 100 % of control; the T/C (dose: 200.0 mg/kg/injection, schedule: Q01DX009 (ip), vehicle: saline) was 94 % of control; the T/C (dose: 400.0 mg/kg/injection, schedule: Q01DX009 (ip), vehicle: saline) was 94 % of control.
With `Ic1ccccc1C[N+]12CN3CN(CN(C3)C1)C2`, the T/C reads like this: under setting [4], 97 % of control; under setting [5], 94 % of control; under setting [6], 105 % of control.
Regarding `O=C(Nc1ccc(F)cc1)Nc1ccc(Cl)cc1`, the T/C was 89 % of control under setting [5] and 89 % of control under setting [6].
In the case of `O=S(=O)(O)C(O)c1cccnc1` (stereo unspecified), the T/C is 102 % of control under setting [3]; 86 % of control (dose: 25.0 mg/kg/injection, schedule: Q01DX009 (ip), vehicle: saline with Tween-80); 89 % of control under setting [4].
Turning to `c1cc2cc3c(cc2cc1CC1=NCCc2cc4c(cc21)OCO4)OCO3`, the T/C (dose: 150.0 mg/kg/injection, schedule: Q01DX009 (ip), vehicle: other) is 102 % of control.
For `COC(=O)Nc1nc2ccc(C(=O)c3ccccc3)cc2[nH]1`, the T/C by setting is: (dose: 2.0 mg/kg/injection, schedule: Q04DX003 (ip), vehicle: saline with Tween-80) 95 % of control; (dose: 4.0 mg/kg/injection, schedule: Q04DX003 (ip), vehicle: saline with Tween-80) 106 % of control; (dose: 8.0 mg/kg/injection, schedule: Q04DX003 (ip), vehicle: saline with Tween-80) 101 % of control; (dose: 15.0 mg/kg/injection, schedule: Q04DX003 (ip), vehicle: saline with Tween-80) 114 % of control; (dose: 16.0 mg/kg/injection, schedule: Q04DX003 (ip), vehicle: saline with Tween-80) 103 % of control; (dose: 200.0 mg/kg/injection, schedule: Q04DX003 (oral), vehicle: saline with Tween-80) 115 % of control.
With `CC(=O)NC(C=O)C(O)C(O)C(O)C(=O)O` (stereo unspecified) (tested in a mixture with another compound), the T/C is, setting by setting: (dose: 6.25 mg/kg/injection, schedule: Q01DX009 (ip), vehicle: Klucel (hydroxypropylcellulose) (HPC)) 100 % of control; (dose: 12.5 mg/kg/injection, schedule: Q01DX009 (ip), vehicle: Klucel (hydroxypropylcellulose) (HPC)) 107 % of control; (dose: 25.0 mg/kg/injection, schedule: Q01DX009 (ip), vehicle: Klucel (hydroxypropylcellulose) (HPC)) 98 % of control.
On to `COC(=O)[CH](C[N+](=O)[O-])[Hg][Cl]` (stereo unspecified), for which the T/C was 95 % of control (dose: 3.2 mg/kg/injection, schedule: Q01DX009 (ip), vehicle: saline with Tween-80); 102 % of control (dose: 6.25 mg/kg/injection, schedule: Q01DX009 (ip), vehicle: saline); 91 % of control (dose: 6.3 mg/kg/injection, schedule: Q01DX009 (ip), vehicle: saline with Tween-80); 89 % of control under setting [3]; 93 % of control (dose: 12.5 mg/kg/injection, schedule: Q01DX009 (ip), vehicle: saline); 94 % of control (dose: 12.5 mg/kg/injection, schedule: Q04DX003 (ip), vehicle: Klucel (hydroxypropylcellulose) (HPC)). Further, the T/C was 89 % of control (dose: 25.0 mg/kg/injection, schedule: Q01DX009 (ip), vehicle: saline) and 92 % of control under setting [1].
With `CO[C@@]12[C@@H]3N[C@@H]3CN1C1=C(C(=O)C(NCc3ccco3)=C(C)C1=O)[C@@H]2COC(N)=O`, the T/C (dose: 0.13 mg/kg/injection, schedule: Q01DX001 (ip), vehicle: distilled water + Tween-80) was 96 % of control; the T/C (dose: 0.25 mg/kg/injection, schedule: Q01DX001 (ip), vehicle: distilled water + Tween-80) was 101 % of control; the T/C (dose: 0.5 mg/kg/injection, schedule: Q01DX001 (ip), vehicle: distilled water + Tween-80) was 111 % of control; the T/C (dose: 1.0 mg/kg/injection, schedule: Q01DX001 (ip), vehicle: distilled water + Tween-80) was 123 % of control; the T/C (dose: 6.0 mg/kg/injection, schedule: Q04DX003 (ip), vehicle: distilled water + Tween-80) was 205 % of control; the T/C (dose: 12.0 mg/kg/injection, schedule: Q04DX003 (ip), vehicle: distilled water + Tween-80) is 305 % of control. Moreover, the T/C (dose: 24.0 mg/kg/injection, schedule: Q04DX003 (ip), vehicle: distilled water + Tween-80) was 315 % of control.
